Here are results for twelve compounds from patent US9643964B2, “3-(2-aminopyrimidin-4-yl)-5-(3-hydroxypropynyl)-1H-pyrrolo[2,3-C]pyridine derivatives as NIK inhibitors for the treatment of cancer” (Janssen Pharmaceutica NV, priority 2013, dated 2017).

In assay [1] the target is T1, Recombinant Human NF-kappaB-Inducing Kinase (NIK/MAP3K14) (Homo sapiens, UniProt Q99558). Description: Biological Assay A: inhibition of recombinant human NIK/MAP3K14 activity (MBP phosphorylation, Mesoscale). The format is biochemical. The conditions noted are these: averaged over all measurements on all batches; read-out: Biochemical (MSD MBP) IC50. The procedure: Inhibition of Recombinant Human NF-kappaB-Inducing Kinase (NIK/MAP3K14) Activity
T1 sequence (Q99558 whole entry): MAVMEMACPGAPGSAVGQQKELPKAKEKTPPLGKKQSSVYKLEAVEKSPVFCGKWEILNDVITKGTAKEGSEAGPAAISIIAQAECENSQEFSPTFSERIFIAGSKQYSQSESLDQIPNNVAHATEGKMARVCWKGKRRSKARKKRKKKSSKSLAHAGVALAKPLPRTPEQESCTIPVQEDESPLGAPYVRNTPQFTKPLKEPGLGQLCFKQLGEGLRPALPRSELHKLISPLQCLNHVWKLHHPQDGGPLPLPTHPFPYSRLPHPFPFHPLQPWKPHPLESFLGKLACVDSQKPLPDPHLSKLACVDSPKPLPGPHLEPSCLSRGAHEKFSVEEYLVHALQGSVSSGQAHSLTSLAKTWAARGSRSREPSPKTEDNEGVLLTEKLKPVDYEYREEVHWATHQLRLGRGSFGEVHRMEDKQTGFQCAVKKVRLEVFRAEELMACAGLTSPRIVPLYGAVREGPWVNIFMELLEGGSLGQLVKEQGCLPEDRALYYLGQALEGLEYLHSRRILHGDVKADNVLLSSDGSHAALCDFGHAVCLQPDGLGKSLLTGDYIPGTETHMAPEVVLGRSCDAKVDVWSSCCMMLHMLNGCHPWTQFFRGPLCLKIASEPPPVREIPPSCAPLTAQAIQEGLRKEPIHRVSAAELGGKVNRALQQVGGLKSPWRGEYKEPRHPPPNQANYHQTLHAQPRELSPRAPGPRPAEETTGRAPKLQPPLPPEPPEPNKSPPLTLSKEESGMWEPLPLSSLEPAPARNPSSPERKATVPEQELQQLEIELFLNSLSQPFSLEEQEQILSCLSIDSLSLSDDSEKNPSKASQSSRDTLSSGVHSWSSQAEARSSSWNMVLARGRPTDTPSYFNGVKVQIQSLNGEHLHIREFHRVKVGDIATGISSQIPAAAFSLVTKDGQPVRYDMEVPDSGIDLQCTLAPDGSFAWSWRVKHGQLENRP
Assay buffer was 50 mM Tris pH 7.5 containing 1 mM EGTA (ethylene glycol tetraacetic acid), 1 mM DTT (dithiothreitol), 0.1 mM Na3VO4, 5 mM MgCl2, 0.01% Tween 20. Assays were carried out in 384 well Mesoscale high binding plates which had been coated with myelin basic protein (MBP) and blocked with bovine serum albumin to prevent non-specific protein binding. All compounds tested were dissolved in dimethyl sulfoxide (DMSO) and further dilutions were made in assay buffer. Final DMSO concentration was 1% (v/v) in assays. Incubations consisted of compound (1% DMSO in control and blank wells), 25 μM Adenosine-5′-triphosphate (ATP), and 10 nM NIK/MAP3K14 substituting enzyme with buffer in the blank wells. Incubations were carried out for 1 h at 25° C. and were followed by washing and sequential incubation with rabbit anti-phospho-MBP and anti-rabbit Ig Sulfotag antibody before reading bound Sulfotag on a Mesoscale Discovery. Signal obtained in the wells containing blank samples was subtracted from all other wells and IC50's were determined by fitting a sigmoidal curve to % inhibition of control versus Log10 compound concentration.

For assay [2], the target named is T1, Recombinant Human NF-kappaB-Inducing Kinase (NIK/MAP3K14). Description: Biological Assay A2: inhibition of auto-phosphorylation of recombinant human NIK/MAP3K14 (AlphaScreen). It is filed as biochemical. Particulars: auto-phosphorylation; averaged over all measurements on all batches; read-out: αscreen IC50. A digest of the protocol:
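GST-tagged NIK/MAP3K14 (0.2 nM) auto-phosphorylation with 25 microM ATP in 50 mM Tris pH 7.5, 5 mM MgCl2, 1% DMSO; 1 h at 25° C. Phospho-IKK Ser176/180 detected by AlphaScreen; blank-subtracted % inhibition fitted sigmoidally vs log concentration for IC50.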

Assay [3] relates to P-IKKα levels in L363 cells. Nature of the assay: Biological Assay B: effect of compounds on P-IKKα levels in L363 cells. The format is cell-based. The conditions noted are these: Homo sapiens, L-363, averaged values, read-out: IKKα Cellular IC50. On the procedure:
Effect of Compounds on P-IKKα Levels in L363 Cells
All compounds tested were dissolved in DMSO and further dilutions were made in culture medium. Final DMSO concentration was 1% (v/v) in cell assays. The human L363 cells (ATCC) were cultured in RPMI 1640 medium supplemented with GlutaMax and 10% fetal calf serum (PAA). Cells were routinely maintained at densities of 0.2×10^6 cells per ml-1×10^6 cells per ml at 37° C. in a humidified 5% CO2 atmosphere. Cells were passaged twice a week splitting back to obtain the low density. Cells were seeded in 96 well plates (Nunc 167008) at 2×10^6 per ml media in a volume of 75 μl per well plus 25 μl 1 μg/ml recombinant human B-cell activating factor BAFF/B1YS/TNFSF13B. Seeded cells were incubated at 37° C. in a humidified 5% CO2 atmosphere for 24 hr. Drugs and/or solvents were added (20 μl) to a final volume of 120 μl. Following 2 hr treatment plates were removed from the incubator and cell lysis was achieved by the addition of 30 μl 5× lysis buffer followed by shaking on a plate shaker at 4° C. for 10 min. At the end of this incubation lysed cells were centrifuged at 800×g for 20 min at 4° C. and the lysate was assessed for P-IKKα levels by sandwich immuno-assay carried out in anti-rabbit antibody coated Mesoscale plates. Within an experiment, the results for each treatment were the mean of 2 replicate wells. For initial screening purposes, compounds were tested using an 8 point dilution curve (serial 1:3 dilutions). For each experiment, controls (containing MG132 and BAFF but no test drug) and a blank incubation (containing MG132 and BAFF and 10 μM ADS125117, a test concentration known to give full inhibition) were run in parallel. The blank incubation value was subtracted from all control and sample values. To determine the IC50 a sigmoidal curve was fitted to the plot of % inhibition of control P-IKKα levels versus Log10 compound concentration.

In assay [4] the test system is LP-1 cells. Nature of the assay: Biological Assay C: antiproliferative activity on LP-1 cells (CellTiter-Glo). It is filed as cell-based, human. Particulars: Homo sapiens, LP-1, 72 h, 72 hr treatment; averaged values. A digest of the protocol:
(§1)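 CellTiter-Glo luminescence after 72 h exposure, blank (cells read at compound addition) subtracted, growth expressed as % of untreated control; duplicate wells. Suspension cells in RPMI/10% FCS, 2,000–6,000 cells/well, 0.3% DMSO.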
(In general: ATP-based viability assays read luminescence as a measure of living cells.)

The subject of assay [5] is L-363 cells. Description: Biological Assay C: antiproliferative activity on L-363 cells (CellTiter-Glo). It is filed as cell-based, human. The conditions noted are these: Homo sapiens, L-363, 72 h, 72 hr treatment; averaged values. A digest of the protocol: as §1
Assay [6] relates to JJN-3 cells. Nature of the assay: Biological Assay C: antiproliferative activity on JJN-3 cells (CellTiter-Glo). It is filed as cell-based, human. Particulars: Homo sapiens, JJN-3, 72 h, 72 hr treatment; averaged values. A digest of the protocol:
as §1

With `CC(C)(O)C#Cc1cc2c(-c3ccnc(N)n3)cn(CCN3CCOCC3)c2cn1` [Compound 7], the results for the 50% inhibitory concentration (IC50) in assay [1], in assay [2] and in assay [3] were 15 nM, 210 nM and 540 nM, respectively. Moreover, the concentration giving a half-maximal response (EC50) – broadly, the concentration that produces a half-maximal response – in assay [4] came out at 3200 nM; in assay [5], 1900 nM; in assay [6], 1900 nM.

Take `CC(C)(O)C#Cc1cc2c(-c3nc(N)ncc3Cl)cn(CCO)c2cn1` [Compound 8]: the IC50 (commonly the concentration that gives 50% inhibition) was 3.3 nM in assay [1], 1 nM in assay [2] and 8 nM in assay [3]. Further, the half-maximal effective concentration (EC50) is 2700 nM in assay [4], 250 nM in assay [5] and 94 nM in assay [6].

Consider `Nc1nccc(-c2c[nH]c3cnc(C#CC4(O)CC4)cc23)n1` [Compound 9], for which the IC50 in assay [1] stood at 1.1 nM; in assay [2], 2 nM; in assay [3] it was 37 nM. The figures for the 50% effective concentration (EC50) in assay [4], in assay [5] and in assay [6] were 1200 nM, 120 nM and 74 nM, respectively.

As for `CC(O)C#Cc1cc2c(-c3ccnc(N)n3)cn(C(C)C)c2cn1` (stereo not drawn) [Compound 10], the IC50 was determined as 9.2 nM in assay [1], 29 nM in assay [2] and 100 nM in assay [3]. The EC50 turned out to be 230 nM in assay [4], 46 nM in assay [5] and 80 nM in assay [6].

Take `CC(C)(O)C#Cc1cc2c(-c3ccnc(N)n3)cn(CCCN)c2cn1` [Compound 11]: the figures for the IC50 in assay [1], in assay [2] and in assay [3] were 8 nM, 27 nM and 300 nM, respectively. For the same compound, the figures for the EC50 in assay [4], in assay [5] and in assay [6] were 600 nM, 130 nM and 41 nM, respectively.

`CC(C)(O)C#Cc1cc2c(-c3ccnc(N)n3)cn(CCO)c2cn1` [Compound 12]: the concentration for half-maximal inhibition (IC50) is 7.4 nM in assay [1], 3 nM in assay [2] and 150 nM in assay [3]. For the same compound, the concentration giving a half-maximal response (EC50) in assay [4] is 12000 nM; in assay [5], 1200 nM; in assay [6], 1300 nM.

`CC(C)(O)C#Cc1cc2c(-c3nc(N)ncc3Cl)c[nH]c2cn1` [Compound 14]: the concentration for half-maximal inhibition (IC50) in assay [1] came to 0.9 nM; in assay [2], 0.4 nM; in assay [3], 11 nM. The concentration giving a half-maximal response (EC50) in assay [4] amounted to 390 nM; in assay [5], 75 nM; in assay [6] it was 75 nM.

As for `CC(C)n1cc(-c2ccnc(N)n2)c2cc(C#CC(C)(C)O)ncc21` [Compound 15], the IC50 in assay [1] is 4.8 nM; in assay [2] it was 12 nM; in assay [3] it was 16 nM. Besides, the EC50 in assay [4] was determined as 370 nM; in assay [5], 44 nM; in assay [6], 120 nM.

With `CC(C)n1cc(-c2nc(N)ncc2Cl)c2cc(C#CC(C)(C)O)ncc21` [Compound 16], the concentration for half-maximal inhibition (IC50) in assay [1] is 4.3 nM; in assay [2], 2 nM; in assay [3] it was 7.3 nM. The EC50 worked out at 92 nM in assay [4], 57 nM in assay [5] and 35 nM in assay [6].

On to `CC(C)n1cc(-c2nc(N)ncc2Cl)c2cc(C#CC(C)(O)c3nccs3)ncc21` (stereo not drawn) [Compound 17], for which the results for the 50% inhibitory concentration (IC50) in assay [1], in assay [2] and in assay [3] were 4.9 nM, 6 nM and 17 nM, respectively. Further, the EC50 in assay [4] was 8000 nM; in assay [5] it was 810 nM; in assay [6], 460 nM.

Take `CC(C)n1cc(-c2ccnc(N)n2)c2cc(C#CC3(O)CCCC3)ncc21` [Compound 18]: the IC50 in assay [1] was determined as 3.7 nM; in assay [2] it was 8 nM; in assay [3], 47 nM. Further, the concentration for a half-maximal effect (EC50) in assay [4] came to 1500 nM; in assay [5], 450 nM; in assay [6], 340 nM.

Take `CC(C)n1cc(-c2nc(N)ncc2Cl)c2cc(C#CC3(O)CCCC3)ncc21` [Compound 19]: the IC50 turned out to be 5.3 nM in assay [1], 16 nM in assay [2] and 18 nM in assay [3]. Further, the EC50 in assay [4] worked out at 1200 nM; in assay [5] it was 430 nM; in assay [6], 160 nM.
